A word on the IC50: it is the point on the concentration scale where inhibition reaches its midpoint.

A short description of the experiment: Antagonistic activity towards Melanocortin 1 receptor in Xenopus frog skin using competitive binding in the presence of 500 pM of alpha-melanocyte stimulating hormone.
For the compound `CC(C)[C@H](NC(=O)[C@@H]1CCC(=O)NCC(=O)N2CCC[C@H]2C(=O)N[C@H](Cc2ccc3ccccc3c2)C(=O)N[C@@H](CCCN=C(N)N)C(=O)N[C@@H](Cc2c[nH]c3ccccc23)C(=O)N1)C(=O)N[C@H](C(=O)NCC(N)=O)C(C)C` [c[Gly-Pro-D-Nal(2')-Arg-Trp-Glu]-Val-Val-Gly-NH2], the IC50 stood at 637 nM.
Regarding `CC(C)[C@H](NC(=O)[C@@H]1CCC(=O)N2CCC[C@H]2C(=O)N[C@H](Cc2ccc3ccccc3c2)C(=O)N[C@@H](CCCN=C(N)N)C(=O)N[C@@H](Cc2c[nH]c3ccccc23)C(=O)N1)C(=O)N[C@H](C(=O)NCC(N)=O)C(C)C` [c[Pro-D-Nal(2')-Arg-Trp-Glu]-Val-Val-Gly-NH2], the half-inhibitory concentration (IC50) came out at 1500 nM.
For the compound `CC(C)[C@H](NC(=O)[C@@H]1CCC(=O)NCC(=O)N2CCC[C@H]2C(=O)N[C@H](Cc2ccccc2)C(=O)N[C@@H](CCCN=C(N)N)C(=O)N[C@@H](Cc2c[nH]c3ccccc23)C(=O)N1)C(=O)N[C@H](C(=O)NCC(N)=O)C(C)C` [19-Benzyl-16-(3-guanidino-propyl)-13-(1H-indol-3-ylmethyl)-4,7,12,15,18,21-hexaoxo-docosahydro-3a,6,11,14,17,20-hexaaza-cyclopentacycloicosene-10-carboxylic acid {1-[1-(carbamoylmethyl-carbamoyl)-2-methyl-propylcarbamoyl]-2-methyl-propyl}-amide], the IC50 is 10000 nM.
